Structures can show the parent of a compound that is named as a salt. Where two headings read alike, the source gives them in different places. {BBTE} = label added with the BBTE phosphoramidite
What was measured:
[1] = background, known fluorophores; cited from earlier work
[2] = phenolic hydroxyl; cited from earlier work
[3] = cited from earlier work
[4] = pH dependence of fluorescence; type: physicochemical
Excerpt: To make the phenolic fluorophore fully fluorescent at a lower pH (7-8) to achieve the best performance for some enzymatic and biological assays, some fluorophores are synthesized with electronegative substituent(s), e.g., chloride, bromide, iodide, fluoride, trifluoromethyl, --SO3 H, etc. These substituted derivatives may be analyzed at different pH's for their fluorescent efficiency. The dependence of fluorescent intensity on pH for some preferred compounds of the invention, and comparative compounds, are shown in FIG. 3. Compared to the unsubstituted compound, BBT (also shown in the graph, U.S. Pat. No. 5,424,440), the electronegatively substituted BBT derivatives, especially CIBBT, can reach their maximum fluorescence at a pH very close to physiological conditions (pH 7-8). The pH dependent characteristic change of fluorescent intensity of these fluorophores can also find applications as pH titration fluorescent indicators.

β-galactosidase = target: T1, β-galactosidase (Escherichia coli, UniProt P00722); assay: Enzymatic activity test, β-galactosidase; type: biochemical, E. Coli; conditions: 1 mg in 10 ml 0.1 M potassium phosphate buffer pH 7, 10 mM DTT, 1 mM MgCl2
T1 construct: purchased ICN Biomedicals, Inc. 104939; host or cells: E. Coli
Description: (2) β-Galactosidase: 1 mg BEBTESG was dissolved in 10 ml 0.1 M potassium phosphate buffer (pH 7) containing 10 mM DTT and 1 mM MgCl2 and a small quantity of β-galactosidase (Cat. No. 104939, E. Coli, ICN Biomedicals, Inc.) was added.

[5] = Fluorescence properties measured at pH about 10 in AttoPhos buffer; type: physicochemical
Description: * The fluorescence is measured at pH about 10 in AttoPhos buffer (JBL
Scientific, San Luis Obispo, CA).
In the following examples, NMR data were measured by a Bruker AC-300 300 MHz instrument; mass spectra were obtained on a VG Platform, Fisons Instruments; fluorescence data were obtained from a Perkin Elmer Luminescence Spectrometer, Model LS50B.

[6] = Fluorescence of labeled oligonucleotide on DNA electrophoresis gel; conditions: versus non-labeled oligonucleotide
Excerpt: (4) Fluorescence: The labeled BBTE-[…] (SEQ ID NO: 1) was separated on a standard DNA electrophoresis gel, along with the non-labeled […] (SEQ ID NO: 1).

[7] = test system: Lipase from Pseudomonas species; assay: Lipase activity towards BBT acyl derivatives; type: biochemical; conditions: 100 mM Tris HCl pH 8.0; Ex 440 nm, Em 550 nm; FIG. 5; text says 'lipases'
Description: (3) Esterase and Lipase: Buffer: 100 mM Tris. HCl, pH 8.0. Substrate Stock Solution: 2 mM acyl BBT dioxane solution. Enzymes: All enzymes were from Sigma: Esterase from Porcine Liver(E3 128); Lipase from Pseudomonas species ([…]); Lipase from Candida cylindracea ([…]). Dilute the enzyme by the buffer to the desired concentration before use. Instrument: Squoia-Tumer Fluorometer, Model 450. Excitation at 440 nm and Emission at 550 nm. Procedure: 1. Set the Fluorometer Gain to 200. 2. Set the Fluorometer Zero to 0 with the Tris buffer. 3. Set the Fluorometer Span to 1000 using JBL 10 ng BBT (FEY) standard solution. 4. Pipette 980 μl buffer to a glass test tube (Baxter, Cat. No. T1290-3). 5. Add 10 μl substrate stock solution and mix well. 6. Measure and record the blank reading. 7. Add 10 μl enzyme solution. 8. Take fluorescence reading every one minute for 3 minutes and record. 9. Calculate the fluorescence unit change (FU/min) by subtracting the first-minute reading from the second-minute reading. 10. Plot FU/min vs. enzyme concentration, u/L (FIG. 4 and FIG. 5).

[8] = test system: Esterase from Porcine Liver; assay: Esterase activity towards BBT acyl derivatives; type: biochemical; conditions: 100 mM Tris HCl pH 8.0; Ex 440 nm, Em 550 nm; FIG. 4
Description: Buffer: 100 mM Tris. HCl, pH 8.0.
Substrate Stock Solution: 2 mM acyl BBT dioxane solution.
Enzymes: All enzymes were from Sigma: Esterase from Porcine Liver(E3 128); Lipase from Pseudomonas species (L9518); Lipase from Candida cylindracea (L1754). Dilute the enzyme by the buffer to the desired concentration before use.
Instrument: Squoia-Tumer Fluorometer, Model 450. Excitation at 440 nm and Emission at 550 nm.
1. Set the Fluorometer Gain to 200.
2. Set the Fluorometer Zero to 0 with the Tris buffer.
3. Set the Fluorometer Span to 1000 using JBL 10 ng BBT (FEY) standard solution.
4. Pipette 980 μl buffer to a glass test tube (Baxter, Cat. No. T1290-3).
5. Add 10 μl substrate stock solution and mix well.
6. Measure and record the blank reading.
7. Add 10 μl enzyme solution.
8. Take fluorescence reading every one minute for 3 minutes and record.
9. Calculate the fluorescence unit change (FU/min) by subtracting the first-minute reading from the second-minute reading.
10. Plot FU/min vs. enzyme concentration, u/L (FIG. 4 and FIG. 5).

[9] = aqueous; cited from earlier work
[10] = target: T2, alkaline phosphatase (Calf Intestine) (Bos taurus, UniProt P19111); assay: Enzymatic activity test, alkaline phosphatase; type: biochemical; conditions: 1 mg in 10 ml AttoPhos buffer
T2 construct: purchased Calzyme, San Luis Obispo, Calif; host or cells: calf intestine
Description: (1) Alkaline Phosphatase: 1 mg BEBTP was dissolved in 10 ml AttoPhos buffer (JBL Scientific, San Luis Obispo, Calif.). A small quantity of alkaline phosphatase (Calf Intestine, Calzyme, San Luis Obispo, Calif.) was added.

T1 sequence (P00722 2-1024): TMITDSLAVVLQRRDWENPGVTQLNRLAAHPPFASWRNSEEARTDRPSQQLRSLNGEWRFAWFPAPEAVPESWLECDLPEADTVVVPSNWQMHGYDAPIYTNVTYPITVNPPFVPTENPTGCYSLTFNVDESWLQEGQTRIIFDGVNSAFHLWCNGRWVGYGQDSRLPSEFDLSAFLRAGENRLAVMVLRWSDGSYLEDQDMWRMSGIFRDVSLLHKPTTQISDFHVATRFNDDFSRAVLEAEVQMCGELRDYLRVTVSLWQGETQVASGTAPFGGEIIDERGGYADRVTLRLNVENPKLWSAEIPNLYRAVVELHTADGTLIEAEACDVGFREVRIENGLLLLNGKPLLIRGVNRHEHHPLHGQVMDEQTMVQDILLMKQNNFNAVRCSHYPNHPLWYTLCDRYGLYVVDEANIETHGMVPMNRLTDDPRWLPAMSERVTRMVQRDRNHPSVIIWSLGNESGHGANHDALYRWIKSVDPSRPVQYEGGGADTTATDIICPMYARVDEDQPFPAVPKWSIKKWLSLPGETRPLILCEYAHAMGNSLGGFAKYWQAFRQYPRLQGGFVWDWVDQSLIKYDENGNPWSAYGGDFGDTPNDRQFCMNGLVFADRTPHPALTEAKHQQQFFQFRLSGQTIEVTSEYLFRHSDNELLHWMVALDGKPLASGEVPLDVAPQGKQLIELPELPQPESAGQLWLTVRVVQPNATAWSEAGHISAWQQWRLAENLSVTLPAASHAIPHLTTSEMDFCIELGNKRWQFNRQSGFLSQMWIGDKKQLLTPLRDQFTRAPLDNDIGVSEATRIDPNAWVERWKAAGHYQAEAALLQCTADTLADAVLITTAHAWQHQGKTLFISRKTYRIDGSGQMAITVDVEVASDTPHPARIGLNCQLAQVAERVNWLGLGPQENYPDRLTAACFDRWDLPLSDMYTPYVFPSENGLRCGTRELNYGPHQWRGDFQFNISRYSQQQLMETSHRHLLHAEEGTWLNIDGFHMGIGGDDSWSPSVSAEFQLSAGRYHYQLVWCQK
T2 sequence (P19111 20-506 limits assumed): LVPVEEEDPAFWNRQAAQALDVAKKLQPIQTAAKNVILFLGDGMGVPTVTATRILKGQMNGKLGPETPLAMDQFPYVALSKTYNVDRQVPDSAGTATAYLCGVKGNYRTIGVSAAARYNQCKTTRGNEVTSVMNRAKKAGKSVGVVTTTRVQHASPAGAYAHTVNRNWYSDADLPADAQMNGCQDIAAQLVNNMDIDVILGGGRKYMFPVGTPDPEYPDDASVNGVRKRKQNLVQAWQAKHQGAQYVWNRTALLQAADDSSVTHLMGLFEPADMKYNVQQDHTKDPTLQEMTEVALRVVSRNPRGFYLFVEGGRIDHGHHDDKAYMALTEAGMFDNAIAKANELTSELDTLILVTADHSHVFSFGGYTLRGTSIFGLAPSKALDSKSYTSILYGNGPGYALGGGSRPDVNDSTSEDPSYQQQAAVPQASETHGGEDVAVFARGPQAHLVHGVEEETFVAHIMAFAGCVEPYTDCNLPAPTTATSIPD

Oc1ccc2nc(-c3nc4ccccc4s3)sc2c1 [BBT, 2'-(2-Benzothiazolyl)-6'-hydroxy-benzothiazole]
Stokes Shift [1]: 142 nm
λEM (wavelength of maximum emission) [1]: 561 nm
λEX (wavelength of maximum excitation) [1]: 419 nm
pKa [2]: 8.5
ionization state (fluorescence) ([3]; pH 10.3 (ALP assay)): fully ionized
ionization state (fluorescence) ([3]; pH range of 6.0 to 8.0): only partially ionized
pH at which the compound fully fluoresces [4]: 9-10 pH

Cc1cc(=O)oc2cc(O)ccc12 [4-Methylumbelliferone]
Stokes Shift [1]: 82 nm
λEM (wavelength of maximum emission) [1]: 449 nm
λEX (wavelength of maximum excitation) [1]: 367 nm

O=S(=O)(O)CCc1ccc2nc(/C=C/c3nc4ccc(O[C@@H]5O[C@H](CO)[C@H](O)[C@H](O)[C@H]5O)cc4s3)sc2c1 [BEBTESG, 2'-((6-Sulfoethyl-2-benzothiazolyl)ethenyl)-6'-hydroxybenzothiazole β-D-Galactoside]
fluorescence on hydrolysis by β-galactosidase (β-galactosidase): orange red fluorescence was quickly developed

O=C(O)Cc1ccc2nc(-c3nc4ccc(O)c(Cl)c4s3)sc2c1 [CIBBTAA, 2'-(7-Chloro-6-hydroxybenzothiazol-2-yl)-benzothiazole-6'-acetic acid]
EM ([5]; Table 1): 545 nm
EX ([5]; Table 1): 437 nm
Stokes Shift ([5]; Table 1): 108 nm

Oc1ccc2nc(-c3ccccc3)oc2c1 [2-Phenyl-6-hydroxybenzoxazole]
Stokes Shift [1]: 110 nm
λEM (wavelength of maximum emission) [1]: 460 nm
λEX (wavelength of maximum excitation) [1]: 370 nm

BBTE-TCTCCCAGCGTGCGCCAT: oligonucleotide (SEQ ID NO: 1) labeled at the 5'-end with the BBTE phosphoramidite (5' {BBTE}, sugars by position and backbone not given here)
fluorescence on DNA electrophoresis gel [6]: strong yellow fluorescent band

O=C1OC2(c3ccc(O)cc3Oc3cc(O)ccc32)c2ccccc21 [Fluorescein]
Stokes Shift [1]: 28 nm
λEM (wavelength of maximum emission) [1]: 520 nm
λEX (wavelength of maximum excitation) [1]: 492 nm

Oc1ccc2nc(-c3nc4ccccc4s3)sc2c1Cl [CIBBT, 2'-(Benzothiazol-2-yl)-7'-chloro-6'-hydroxybenzothiazole]
EM ([5]; Table 1): 550 nm
EX ([5]; Table 1): 435 nm
Stokes Shift ([5]; Table 1): 115 nm
pH at which maximum fluorescence is reached ([4]; FIG. 3): 7-8 pH

OCCc1ccc2nc(-c3nc4ccc(O)cc4s3)sc2c1 [BBTE]
EM ([5]; Table 1): 550 nm
EX ([5]; Table 1): 422 nm
Stokes Shift ([5]; Table 1): 128 nm

Oc1ccc2nc(/C=C/c3nc4ccccc4s3)sc2c1 [BEBT, 2'-(2-benzothiazolylethenyl)-6'-hydroxybenzothiazole]
EM ([5]; Table 2): 620 nm
EX ([5]; Table 2): 440 nm
Stokes Shift ([5]; Table 2): 180 nm

O=S(=O)(O)c1c(O)ccc2nc(-c3nc4ccccc4s3)sc12 [SBBT]
EM ([5]; Table 1): 538 nm
EX ([5]; Table 1): 420 nm
Stokes Shift ([5]; Table 1): 118 nm

CCC(=O)Oc1ccc2nc(-c3nc4ccccc4s3)sc2c1 [Propionyl BBT, 2'-(2-Benzothiazolyl)-6'-hydroxybenzothiazole Propionate]
substrate activity for lipases [7]: very poor substrate
substrate activity for porcine liver esterase [8]: very effective substrate

Oc1ccc2nc(/C=C/c3nc4ccccc4o3)sc2c1 [BEBO, 2'-(2-benzoxazolylethenyl)-6'-hydroxybenzothiazole]
EM ([5]; Table 2): 604 nm
EX ([5]; Table 2): 438 nm
Stokes Shift ([5]; Table 2): 166 nm

CCN1C(=CC=Cc2oc3ccccc3[n+]2CCCCCC(=O)[O-])Oc2ccccc21 [Cy2]
Stokes Shift [1]: 18 nm
λEM (wavelength of maximum emission) [1]: 506 nm
λEX (wavelength of maximum excitation) [1]: 489 nm

CCCCCCCC/C=C\CCCCCCCC(=O)Oc1ccc2nc(-c3nc4ccccc4s3)sc2c1 [oleoyl BBT, 2'-(2-Benzothiazolyl)-6'-hydroxybenzothiazole Oleate]
substrate activity for lipases [7]: high activity
substrate activity for porcine liver esterase [8]: low activity

OC[C@H]1O[C@@H](Oc2ccc3nc(-c4nc5ccccc5s4)sc3c2)[C@H](O)[C@@H](O)[C@H]1O [galactoside of BBT]
solubility [9]: less than 1 mM

O=P(O)(O)Oc1ccc2nc(/C=C/c3nc4ccccc4s3)sc2c1 [BEBTP, 2'-(2-Benzothiazolylethenyl)-6'-hydroxybenzothiazole phosphate di(2-amino-2-methyl 1,3-propanediol) salt]
fluorescence on hydrolysis by alkaline phosphatase [10]: orange red fluorescence was quickly developed

CCN(CC)c1ccc2c(-c3ccccc3C(=O)O)c3ccc(=[N+](CC)CC)cc-3oc2c1 [Rhodamine]
Stokes Shift [1]: 35 nm
λEM (wavelength of maximum emission) [1]: 575 nm
λEX (wavelength of maximum excitation) [1]: 540 nm

O=C(O)Cc1ccc2nc(-c3nc4ccc(O)cc4s3)sc2c1 [BBTAA, 2'-(6-Hydroxybenzothiazol-2-yl)-benzothiazole-6'-acetic acid]
EM ([5]; Table 1): 549 nm
EX ([5]; Table 1): 430 nm
Stokes Shift ([5]; Table 1): 119 nm

Oc1ccc2nc(/C=C/c3nc4c(ccc5ccccc54)o3)sc2c1 [α-BENO]
EM ([5]; Table 2): 585 nm
EX ([5]; Table 2): 432 nm
Stokes Shift ([5]; Table 2): 153 nm

O=C(Cc1ccc2nc(-c3nc4ccc(O)cc4s3)sc2c1)NCCS(=O)(=O)O [BBTAAT]
EM ([5]; Table 1): 548 nm
EX ([5]; Table 1): 430 nm
Stokes Shift ([5]; Table 1): 118 nm

Oc1ccc2nc(-c3nc4ccccc4s3)sc2c1F [FBBT, 2'-(2-Benzothiazolyl)-7'-fluoro-6'-hydroxybenzothiazole]
EM ([5]; Table 1): 552 nm
EX ([5]; Table 1): 423 nm
Stokes Shift ([5]; Table 1): 129 nm

Oc1ccc2nc(/C=C/c3nc4ccc5ccccc5c4o3)sc2c1 [β-BENO]
EM ([5]; Table 2): 602 nm
EX ([5]; Table 2): 443 nm
Stokes Shift ([5]; Table 2): 159 nm

Oc1ccc2nc(/C=C/c3nc4c(ccc5ccccc54)s3)sc2c1 [α-BENT]
EM ([5]; Table 2): 624 nm
EX ([5]; Table 2): 443 nm
Stokes Shift ([5]; Table 2): 181 nm

— US6140051A, “Fluorescent dibenzazole derivatives and methods related thereto” (priority 1998, dated 2000)
